Source: PubChem BioAssay (NCI)
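Step 1: Grow cells in 96-well plates. Step 2: Expose to compound for 48 hours at 5 concentrations. Step 3: Interpolate endpoints linearly; if unreached, use highest concentration. The concentration for 50% growth inhibition is given as GI50. Definition used: TGI = concentration required for complete inhibition of growth.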

Columns and labels:
Test in all cases: growth of human tumour cells (NCI), 48 h
[1] = test system: SK-MEL-5 melanoma
[2] = test system: HOP-62 NSCLC
[3] = test system: OVCAR-5 ovarian
[4] = test system: HS 578T breast
[5] = test system: NCI-H23 lung
[6] = test system: LOX IMVI melanoma
[7] = test system: CCRF-CEM leukemia
[8] = test system: MDA-MB-435
[9] = test system: OVCAR-4 ovarian
[10] = test system: SK-OV-3 ovarian
[11] = test system: NCI-H226 lung
[12] = test system: K-562 leukemia
[13] = test system: OVCAR-3 ovarian
[14] = test system: SW-620 colon
[15] = test system: 786-0 renal
[16] = test system: UACC-62 melanoma
[17] = test system: OVCAR-8 ovarian
[18] = test system: SN12C renal
[19] = test system: HOP-92 NSCLC
[20] = test system: A498 renal
[21] = test system: TK-10 renal
[22] = test system: RXF 393 renal
[23] = test system: COLO 205 colon
[24] = test system: MDA-MB-231 breast
[25] = test system: MCF7 breast
[26] = test system: HT29 colon
[27] = test system: SF-295 CNS
[28] = test system: DU-145 prostate
[29] = test system: T-47D breast
[30] = test system: U251 CNS
[31] = test system: NCI/ADR-RES ovarian
[32] = test system: UACC-257 melanoma
[33] = test system: M14 melanoma
[34] = test system: SNB-19 CNS
[35] = test system: CAKI-1 renal
[36] = test system: SF-268 CNS
[37] = test system: SNB-75 CNS
[38] = test system: KM12 colon
[39] = test system: MOLT-4 leukemia
[40] = test system: SK-MEL-2 melanoma
[41] = test system: NCI-H460 lung
[42] = test system: A549 NSCLC
[43] = test system: SF-539 CNS
[44] = test system: HCC-2998 colon
[45] = test system: PC-3 prostate
[46] = test system: SR leukemia
[47] = test system: RPMI-8226 leukemia
[48] = test system: HCT-116 colon
[49] = test system: NCI-H522 lung
[50] = test system: SK-MEL-28 melanoma
[51] = test system: BT-549 breast
[52] = test system: EKVX NSCLC
[53] = test system: MALME-3M melanoma
[54] = test system: HL-60(TB) leukemia
[55] = test system: ACHN renal
[56] = test system: IGROV1 ovarian
[57] = test system: HCT-15 colon
[58] = test system: UO-31 renal

COC(=O)c1ccc(NC2=C(Cl)C(=O)C(C)=C(C)C2=O)cc1
GI50 [1]: 1.92 µM
TGI [1]: 4.08 µM
GI50 [2]: 5.52 µM
TGI [2]: > 100 µM
GI50 [3]: 6.08 µM
TGI [3]: > 100 µM
GI50 [4]: 4 µM
TGI [4]: 93.8 µM
GI50 [5]: 3.77 µM
TGI [5]: > 100 µM
GI50 [6]: 1.81 µM
TGI [6]: 3.41 µM
GI50 [7]: 1.08 µM
TGI [7]: 4.98 µM
GI50 [8]: 1.84 µM
TGI [8]: 8.73 µM
GI50 [9]: 1.73 µM
TGI [9]: 3.14 µM
GI50 [10]: 5.13 µM
TGI [10]: > 100 µM
GI50 [11]: 5.82 µM
TGI [11]: > 100 µM
GI50 [12]: 1.58 µM
TGI [12]: 5.31 µM
GI50 [13]: 1.81 µM
TGI [13]: 3.3 µM
GI50 [14]: 2.1 µM
TGI [14]: 4.42 µM
GI50 [15]: 15.1 µM
TGI [15]: > 100 µM
GI50 [16]: 1.77 µM
TGI [16]: 5.53 µM
GI50 [17]: 6.89 µM
TGI [17]: > 100 µM
GI50 [18]: 9.11 µM
TGI [18]: > 100 µM
GI50 [19]: 1.46 µM
TGI [19]: 3.11 µM
GI50 [20]: 2.06 µM
TGI [20]: 96.7 µM
GI50 [21]: > 100 µM
TGI [21]: > 100 µM
GI50 [22]: 1.75 µM
TGI [22]: 4.25 µM
GI50 [23]: 7.69 µM
TGI [23]: > 100 µM
GI50 [24]: 2.68 µM
TGI [24]: 7.71 µM
GI50 [25]: 2.66 µM
TGI [25]: > 100 µM
GI50 [26]: 6.64 µM
TGI [26]: > 100 µM
GI50 [27]: 2.18 µM
TGI [27]: 6.64 µM
GI50 [28]: 11.2 µM
TGI [28]: > 100 µM
GI50 [29]: 1.74 µM
TGI [29]: 4.72 µM
GI50 [30]: 3.77 µM
TGI [30]: > 100 µM
GI50 [31]: 2.65 µM
TGI [31]: 10.9 µM
GI50 [32]: 3.07 µM
TGI [32]: > 100 µM
GI50 [33]: 2.84 µM
TGI [33]: 40.5 µM
GI50 [34]: 3.32 µM
TGI [34]: > 100 µM
GI50 [35]: 2.95 µM
TGI [35]: > 100 µM
GI50 [36]: 3.79 µM
TGI [36]: > 100 µM
GI50 [37]: 1.6 µM
TGI [37]: 7.31 µM
GI50 [38]: 2.06 µM
TGI [38]: 4.64 µM
GI50 [39]: 1.43 µM
TGI [39]: 5.13 µM
GI50 [40]: 3.2 µM
TGI [40]: > 100 µM
GI50 [41]: 4.7 µM
TGI [41]: > 100 µM
GI50 [42]: 5.25 µM
TGI [42]: > 100 µM
GI50 [43]: 2.33 µM
TGI [43]: 5.91 µM
GI50 [44]: 3.84 µM
TGI [44]: > 100 µM
GI50 [45]: 2.63 µM
TGI [45]: > 100 µM
GI50 [46]: 1.22 µM
TGI [46]: 4.02 µM
GI50 [47]: 2.19 µM
TGI [47]: 5.29 µM

CCOC(=O)c1ccc(NC2=C(Cl)C(=O)c3nc(C)ccc3C2=O)cc1
GI50 [48]: 1.87 µM
TGI [48]: 4.36 µM
GI50 [1]: 2.21 µM
TGI [1]: 5.63 µM
GI50 [49]: 1.71 µM
TGI [49]: 3.72 µM
GI50 [2]: 10.2 µM
TGI [2]: 23.9 µM
GI50 [3]: 13.2 µM
TGI [3]: 33.7 µM
GI50 [4]: 2.55 µM
TGI [4]: 7 µM
GI50 [5]: 2.31 µM
TGI [5]: 7.58 µM
GI50 [7]: 1.27 µM
TGI [7]: 4.88 µM
GI50 [8]: 3.21 µM
TGI [8]: 10.8 µM
GI50 [50]: 2.47 µM
TGI [50]: 6.02 µM
GI50 [9]: 1.67 µM
TGI [9]: 3.26 µM
GI50 [10]: 10.5 µM
TGI [10]: 23.9 µM
GI50 [51]: 2.06 µM
TGI [51]: 5.1 µM
GI50 [11]: 3.43 µM
TGI [11]: 17.5 µM
GI50 [12]: 0.371 µM
TGI [12]: 3.3 µM
GI50 [13]: 1.78 µM
TGI [13]: 3.22 µM
GI50 [52]: 2.53 µM
TGI [52]: 7.55 µM
GI50 [14]: 2.06 µM
TGI [14]: 4.41 µM
GI50 [15]: 1.88 µM
TGI [15]: 3.93 µM
GI50 [16]: 2.46 µM
TGI [16]: 11.2 µM
GI50 [17]: 4.38 µM
TGI [17]: 18.4 µM
GI50 [18]: 3.51 µM
TGI [18]: 20.2 µM
GI50 [53]: 1.83 µM
TGI [53]: 3.62 µM
GI50 [19]: 1.8 µM
TGI [19]: 3.48 µM
GI50 [20]: 11.7 µM
TGI [20]: 28.3 µM
GI50 [21]: 1.79 µM
TGI [21]: 3.24 µM
GI50 [22]: 1.63 µM
TGI [22]: 3.02 µM
GI50 [23]: 1.75 µM
TGI [23]: 3.58 µM
GI50 [24]: 3.73 µM
TGI [24]: 17.1 µM
GI50 [26]: 2.18 µM
TGI [26]: 5.13 µM
GI50 [54]: 1.1 µM
TGI [54]: 3.21 µM
GI50 [27]: 5.48 µM
TGI [27]: 19.1 µM
GI50 [28]: 1.82 µM
TGI [28]: 3.4 µM
GI50 [29]: 2.1 µM
TGI [29]: 5.09 µM
GI50 [30]: 3.75 µM
TGI [30]: 16.1 µM
GI50 [31]: 2.57 µM
TGI [31]: 9.61 µM
GI50 [55]: 1.81 µM
TGI [55]: 3.35 µM
GI50 [32]: 1.63 µM
TGI [32]: 3.12 µM
GI50 [33]: 1.85 µM
TGI [33]: 3.76 µM
GI50 [34]: 4.76 µM
TGI [34]: 89.4 µM
GI50 [35]: 1.53 µM
TGI [35]: 2.99 µM
GI50 [36]: 3.86 µM
TGI [36]: 17.1 µM
GI50 [37]: 2.3 µM
TGI [37]: 10.3 µM
GI50 [38]: 3.37 µM
TGI [38]: 12.9 µM
GI50 [56]: 3.43 µM
TGI [56]: 11.3 µM
GI50 [39]: 1.57 µM
TGI [39]: 5.32 µM
GI50 [40]: 2.89 µM
TGI [40]: 9.46 µM
GI50 [41]: 8.76 µM
TGI [41]: 30.1 µM
GI50 [42]: 19.4 µM
TGI [42]: 70.5 µM
GI50 [57]: 1.57 µM
TGI [57]: 3.37 µM
GI50 [43]: 2.52 µM
TGI [43]: 6.72 µM
GI50 [44]: 3.63 µM
TGI [44]: 13.8 µM
GI50 [45]: 3.31 µM
TGI [45]: 15.7 µM
GI50 [46]: 0.783 µM
TGI [46]: 3.57 µM
GI50 [58]: 1.54 µM
TGI [58]: 3.01 µM
GI50 [47]: 2.16 µM
TGI [47]: 5.95 µM
